Assay type in all cases: physicochemical
The nature of data set [1]: Dynamic surface tension, bubble pressure method (BP2100 tensiometer). The settings on record: surface age 200 milliseconds. As to the method:
The dynamic surface tension was determined via the bubble pressure method (BP2100, tensiometer, Krüss). With a time span relevant for the spray application of agrochemicals in aqueous dilution (referred to as the surface age in the bubble pressure method) of 200 milliseconds, the value of the dynamic surface tension in [mN/m] correlates with the adherence on difficult-to-wet plants such as barley (cereal). A value of 50 mN/m (at 20-21° C.) produces, relative to water (72.8 mN/m), an improvement in the adherence from “zero adherence” to about 50% (Baur P, Pontzen R 2007. Basic features of plant surface wettability and deposit formation and the impact of adjuvants. In: R E Gaskin ed. Proceeding of the 8th International Symposium on Adjuvants for Agrochemicals. Publisher: International Society for Agrochemical Adjuvants (ISAA), Columbus, Ohio, USA). […] The etherified lactate esters are therefore outstandingly suitable for promoting the accommodation of agrochemicals by cereals (with maize, rice, millet), banana, cabbage/oil seed rape, soybean, and other difficult-to-wet crop plants and weed plants. The positive wetting and sticking effects also apply, of course, for other organisms and artificial surfaces and/or technical applications, for the purpose, for instance, of achieving thin coatings on, or cleaning, surfaces.

Data set [2] can be described thus: Foam behavior, foam test of CIPAC Method MT47. The following applies: 3 g/l, CIPAC D water (342 ppm). From the text: The important properties of interface-active substances include the foam behavior, particularly in aqueous systems. Virtually all surfactants foam, and the time to collapse of the foam has to be shortened in the case of critical (highly foaming) surfactants through addition of defoamers to formulation or to aqueous use preparation. The foam behavior of certain of the substances of the invention was characterized, using aqueous solutions at a concentration of 3 g/l, by the foam test of CIPAC Method MT47.

Data set [3] can be described thus: Static surface tension in aqueous systems, Pending Drop Method (DSA10 Goniometer). The following applies: room temperature (20° C.).

As to 2-ethylhexyl lactate 2EO, the results for the Dynamic surface tension in data set [1] (0.3 g/l in water) and in data set [1] (3 g/l in water) were 50.9 mN/m and 26.8 mN/m, respectively. In addition, the Percentage foam volume in data set [2] (10 s), in data set [2] (60 s), in data set [2] (3 min) and in data set [2] (12 min) was 5% in each case. Also, the Static surface tension in data set [3] (0.3 g/l in water) is 45.34 mN/m; in data set [3] (3 g/l in water), 28.19 mN/m.

Turning to 2-ethylhexyl lactate 2PO/2EO, the figures for the Dynamic surface tension in data set [1] (0.3 g/l in water) and in data set [1] (3 g/l in water) were 47.8 mN/m and 30.7 mN/m, respectively. Moreover, the Percentage foam volume was determined as 2% in data set [2] (10 s), 2% in data set [2] (60 s), 0% in data set [2] (3 min) and 0% in data set [2] (12 min). The Static surface tension in data set [3] (0.3 g/l in water) stood at 40.40 mN/m; in data set [3] (3 g/l in water) it was 29.47 mN/m.

With 2-ethylhexyl lactate 2PO/5EO, the results for the Dynamic surface tension in data set [1] (0.3 g/l in water) and in data set [1] (3 g/l in water) were 50.7 mN/m and 29.6 mN/m, respectively. In addition, the Percentage foam volume in data set [2] (10 s) turned out to be 25%; in data set [2] (60 s), 10%; in data set [2] (3 min), 10%; in data set [2] (12 min) it was 10%. Also, the Static surface tension was found to be 43.35 mN/m in data set [3] (0.3 g/l in water) and 28.48 mN/m in data set [3] (3 g/l in water).

Regarding 2-ethylhexyl lactate 2PO/10EO, the Dynamic surface tension amounted to 54.2 mN/m in data set [1] (0.3 g/l in water) and 37.4 mN/m in data set [1] (3 g/l in water). For the same substance, the Percentage foam volume in data set [2] (10 s) was found to be 50%; in data set [2] (60 s) it was 10%; in data set [2] (3 min) it was 0%; in data set [2] (12 min) it was 0%. In addition, the Static surface tension in data set [3] (0.3 g/l in water) turned out to be 47.43 mN/m; in data set [3] (3 g/l in water), 36.0 mN/m.

In the case of 2-ethylhexyl lactate 5EO, the Dynamic surface tension was 54.4 mN/m in data set [1] (0.3 g/l in water) and 35.3 mN/m in data set [1] (3 g/l in water). Besides, the Percentage foam volume was 50% in data set [2] (10 s), 40% in data set [2] (60 s), 20% in data set [2] (3 min) and 10% in data set [2] (12 min). Besides, the Static surface tension in data set [3] (0.3 g/l in water) turned out to be 48.65 mN/m; in data set [3] (3 g/l in water), 32.61 mN/m.

On to 2-ethylhexyl lactate 10EO, for which the results for the Dynamic surface tension in data set [1] (0.3 g/l in water) and in data set [1] (3 g/l in water) were 56.6 mN/m and 46.6 mN/m, respectively. For the same substance, the Percentage foam volume is recorded as 10% in data set [2] (10 s), 5% in data set [2] (60 s), 5% in data set [2] (3 min) and 0% in data set [2] (12 min). In addition, the Static surface tension in data set [3] (0.3 g/l in water) is on record as 52.99 mN/m; in data set [3] (3 g/l in water) it was 35.18 mN/m.

Turning to 2-ethylhexyl lactate 15EO, the Dynamic surface tension was found to be 58.6 mN/m in data set [1] (0.3 g/l in water) and 48.1 mN/m in data set [1] (3 g/l in water). Further, the Percentage foam volume in data set [2] (10 s), in data set [2] (60 s), in data set [2] (3 min) and in data set [2] (12 min) was 0% each time. The results for the Static surface tension in data set [3] (0.3 g/l in water) and in data set [3] (3 g/l in water) were 54.33 mN/m and 42.23 mN/m, respectively.

In the case of Lauryl lactate 5EO/2PO, the values for the Dynamic surface tension in data set [1] (0.3 g/l in water) and in data set [1] (3 g/l in water) were 51.9 mN/m and 37.4 mN/m, respectively. In addition, the Static surface tension in data set [3] (0.3 g/l in water) is reported as 31.63 mN/m; in data set [3] (3 g/l in water) it was 31.34 mN/m.

Take Lauryl lactate 5EO/5PO: the Dynamic surface tension in data set [1] (0.3 g/l in water) is reported as 52.7 mN/m; in data set [1] (3 g/l in water), 36.5 mN/m. Further, the Static surface tension in data set [3] (0.3 g/l in water) was 31.65 mN/m; in data set [3] (3 g/l in water) it was 30.14 mN/m.

Consider Lauryl lactate 8EO/2PO, for which the figures for the Dynamic surface tension in data set [1] (0.3 g/l in water) and in data set [1] (3 g/l in water) were 54.3 mN/m and 37.7 mN/m, respectively. Moreover, the Static surface tension turned out to be 30.76 mN/m in data set [3] (0.3 g/l in water) and 30.71 mN/m in data set [3] (3 g/l in water).

With Lauryl lactate 8EO/5PO, the Dynamic surface tension worked out at 50.9 mN/m in data set [1] (0.3 g/l in water) and 36.2 mN/m in data set [1] (3 g/l in water). For the same substance, the Static surface tension was found to be 31.38 mN/m in data set [3] (0.3 g/l in water) and 31.51 mN/m in data set [3] (3 g/l in water).

Values taken from patent US9826734B2, “Etherified lactate esters, method for the production thereof and use thereof for enhancing the effect of plant protecting agents” (Clariant International Ltd., priority 2011, dated 2017).
